# Article PMC9424906 (Frontiers in Pharmacology, 2022)
# Entries after “also recorded” stand apart in the source; their conditions may differ.
# Tests used:
# OAT3 = conditions: cited from earlier work
# in vitro = in vitro ADME, human; conditions: Sprague-Dawley (rat), CD-1 (mouse), Beagle (dog), monkey
# Protocol: Plasma protein binding experiments were carried out in mixed-gender human plasma, male Sprague-Dawley rat plasma, male CD-1 plasma, male Beagle dog plasma, and male Cynomolgus monkey plasma (BioIVT) using a Pierce Rapid Equilibration Dialysis (RED) device. […] Blank phosphate-buffered saline (PBS) (500 μL) was added to each corresponding receiver chamber. After 4 h of incubation (with shaking at 37°C), both sides were aliquoted, and matrix was normalized. Samples were centrifuged at 1000 g for 10 min after adding two volumes of ACN with IS. Supernatants were diluted 1:1 with water and analyzed with LC-MS/MS.
# Plasma Protein binding was calculated as follows:
# % Bound = [(PARR in Donor–PARR in Receiver)/(PARR in Donor)] × 100.
# PARR = peak area response ratio to internal standard, including applicable dilution factors.
# [1] = Liver microsomal stability, CD-1 mouse; assay type: in vitro ADME; conditions: liver microsomes, pH 7.4, 0.5 mg/mL
# Protocol: (§1) Samples were analyzed using UPLC-MS/MS.
# [2] = assay type: in vitro ADME, human, rat, mouse, dog, monkey
# Protocol: as §1
# CNT1 = molecular target: T1, CNT1 (Homo sapiens, UniProt O00337); experiment: Nucleoside transporter uptake, CNT1-transfected MDCK cells; assay type: in vitro ADME
# T1 construct: expressed in transfected cells; host or cells: MDCK-II
# T1 sequence (O00337 1-649): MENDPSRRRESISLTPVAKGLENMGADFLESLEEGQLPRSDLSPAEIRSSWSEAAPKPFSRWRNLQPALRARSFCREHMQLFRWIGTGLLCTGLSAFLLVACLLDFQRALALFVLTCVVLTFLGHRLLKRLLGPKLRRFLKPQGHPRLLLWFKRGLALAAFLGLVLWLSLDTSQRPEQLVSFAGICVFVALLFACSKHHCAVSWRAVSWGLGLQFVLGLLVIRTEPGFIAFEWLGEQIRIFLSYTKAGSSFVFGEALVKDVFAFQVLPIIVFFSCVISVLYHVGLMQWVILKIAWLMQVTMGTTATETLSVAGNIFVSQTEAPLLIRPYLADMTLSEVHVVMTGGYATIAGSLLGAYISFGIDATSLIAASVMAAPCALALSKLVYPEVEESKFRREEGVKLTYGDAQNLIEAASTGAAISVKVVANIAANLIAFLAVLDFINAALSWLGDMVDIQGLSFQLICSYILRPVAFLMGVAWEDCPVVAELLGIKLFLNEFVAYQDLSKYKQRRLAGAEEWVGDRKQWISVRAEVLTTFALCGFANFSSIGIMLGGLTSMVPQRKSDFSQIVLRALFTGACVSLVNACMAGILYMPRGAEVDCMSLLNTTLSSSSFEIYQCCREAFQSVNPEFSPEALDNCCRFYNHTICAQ
# From the text: (§2) Each condition was run in triplicate.
# OCT1 = conditions: cited from earlier work
# [3] = 7-days dose range finding study in rats; conditions: oral, 7 days, 1,500 mg/kg/day
# MATE1 = conditions: cited from earlier work
# MATE2-K = conditions: cited from earlier work
# [4] = test system: plateable cryopreserved hepatocytes; assay type: in vitro ADME, mouse, rat, dog, monkey, human
# Protocol: Plateable cryopreserved hepatocytes from male CD-1 mouse (Lot# DYF, 81.2% viability), male SD rat (Lot# PMD, 88.1% viability), male Beagle dog (Lot# YTK, 90.0% viability), male Cynomolgus monkey (Lot# GJV, 88.7% viability), and male human (Lot# PDC, 82.9% viability) were purchased from BioIVT (Baltimore, MD). Following vendor’s instructions, the hepatocyte vials were thawed in a 37°C water bath and cells were suspended in 5 mL of corresponding plating media (antibiotic added, rodent media for mouse and rat, dog media for dog, and primate media for monkey and human). The cells were manually counted using Trypan Blue method and were diluted to target concentration (0.35 million/mL for mouse and 0.7 million/mL for other species) with plating media. Diluted cells (500 µL) were then added to Collagen-I coated 24-well plate, distributed evenly, and incubated for 4 h for attaching. Media was changed 4 h prior to compound addition.
# After 24 and 48 h, the reaction was stopped by adding 3x volumes of cold acetonitrile to the reaction mixture. Samples were vortexed and centrifuged to precipitate proteins. The supernatants were transferred to clean tubes and dried under a stream of N2 for ∼20 min at ambient temperature to remove most of organic solvent. The remaining liquid was dried by lyophilization. […]
# CNT3 = molecular target: T2, CNT3 (Homo sapiens, UniProt Q9HAS3); experiment: Nucleoside transporter uptake, CNT3-transfected MDCK cells; assay type: in vitro ADME
# T2 construct: expressed in transfected cells; host or cells: MDCK-II
# T2 sequence (Q9HAS3 whole entry): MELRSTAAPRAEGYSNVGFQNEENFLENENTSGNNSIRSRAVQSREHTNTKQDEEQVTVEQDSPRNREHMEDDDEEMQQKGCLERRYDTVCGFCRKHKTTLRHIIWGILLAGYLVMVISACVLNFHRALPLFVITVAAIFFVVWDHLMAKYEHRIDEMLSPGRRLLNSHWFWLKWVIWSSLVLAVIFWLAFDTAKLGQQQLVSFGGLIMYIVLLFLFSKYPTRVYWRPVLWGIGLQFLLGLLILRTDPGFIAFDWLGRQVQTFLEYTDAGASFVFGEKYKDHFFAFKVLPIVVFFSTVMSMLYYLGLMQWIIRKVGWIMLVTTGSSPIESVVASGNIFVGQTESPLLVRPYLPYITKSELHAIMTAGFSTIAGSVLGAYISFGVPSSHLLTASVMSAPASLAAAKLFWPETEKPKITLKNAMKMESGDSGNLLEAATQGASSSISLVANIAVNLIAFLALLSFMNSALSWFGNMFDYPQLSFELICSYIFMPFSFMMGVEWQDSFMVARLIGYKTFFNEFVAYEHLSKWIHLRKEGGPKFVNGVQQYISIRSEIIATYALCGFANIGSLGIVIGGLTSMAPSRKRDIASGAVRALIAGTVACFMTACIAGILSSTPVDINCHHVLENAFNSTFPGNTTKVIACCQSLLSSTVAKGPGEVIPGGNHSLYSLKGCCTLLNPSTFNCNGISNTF
# From the text: as §2
# [5] = set-up: species or system human
# Protocol: Allometric methods were used to predict human plasma clearance and volume of distribution ([Mahmood and Balian, 1996]; [Sharma and McNeill, 2009]). Human PK prediction was carried out with GastroPlus, version 9.6 (SimulationsPlus, Lancaster, CA)
# To predict human exposures after oral administration, human PK parameters were estimated using allometric scaling and human PK profile was simulated using GastroPlus. The allometric scaling was performed as previously described ([Mahmood and Balian, 1996]).
structure (smiles),measurement,setting,value
N#C[C@@]1(c2ccc3c(N)ncnn23)O[C@H](CO)[C@@H](O)[C@H]1O [GS-441524],Substrate of OAT3,OAT3,not a substrate
same,"fraction unbound at 4 h, 10 µM","in vitro; both (human, mixed-gender), male (animals), human",0.62 to 0.78
same,"fraction unbound at 4 h, 10 µM","in vitro; male, plasma",0.62 to 0.64
same,half-life at 1 µM,[1],1.3 ± 0.05 h
same,Stability in cytosolic fractions,[2],stable
same,Stability in liver microsomes,[2],stable
same,Substrate of CNT1,CNT1,not a substrate; also recorded: unlikely to be a substrate
same,Transporter uptake rate,"CNT1; CNT1, 10 μM, LOQ = 0.222 pmol/min/cm^2",BLQ
same,Difference in uptake compared to control cells,CNT1; CNT1-transfected cells,less than 2 fold
same,Substrate of OCT1,OCT1,not a substrate
same,Tolerability at maximum feasible dose,[3],well tolerated
same,Substrate of MATE1,MATE1,not a substrate
same,Substrate of MATE2-K,MATE2-K,not a substrate
same,Glucuronidation and sulfation metabolites in plateable hepatocytes,[4],detected at trace amount
same,Phosphorylated metabolites in plateable hepatocytes,[4],no detectable phosphorylated metabolites
same,Substrate of CNT3,CNT3,substrate
same,Inhibition of uptake by reference inhibitor,"CNT3; CNT3-transfected cells, reference inhibitor adenosine, 30 µM GS-441524",98.9%
same,Calculated human CLp as share of human hepatic blood flow,[5]; allometric scaling,approximately 10%
same,Predicted human CLp,"[5]; allometric scaling from mouse, rat, monkey, dog",2.7 mL/min/kg
same,Predicted human Vdss,[5]; human,0.6 L/kg
